In US8969294B2 (Istituto di Recerche di Biologia Molecolare P. Angeletti …, priority 2008, dated 2015) one finds EC50 data, which are given here for nine compounds.

SMILES strings stand for the structures. Read-outs that look alike come from different tables or passages of the source. Numbered stars: 1 amine (or outer) side, 2 acyl side, 3 side chain; on linkers, the order of the positions; unused ones are H or OH. Bridge positions count the residues as written; N and C are the ends. Square brackets hold non-standard residues; d marks the D form. Side chains are listed from the residue outwards. Peptide text beside a SMILES is read from it. * marks the point of attachment. γGlu = O=C(O)[C@H](CCC(=O)[*:2])N[*:1]; Palmitoyl = CCCCCCCCCCCCCCCC(=O)*; Aib = CC(C)(N)C(=O)O

The assay deals with glucagon receptor (Homo sapiens, UniProt P47871). The assay is described as follows: Functional assay, cAMP synthesis: luciferase reporter in HEK293 cells co-transfected with glucagon receptor.
The mark [1] stands for this setting: EC50 at Glucagon Receptor, Table 31.
Where [2] appears, read: EC50, Glucagon Receptor, Table 13.

glucagon receptor, sequence (P47871 26-477): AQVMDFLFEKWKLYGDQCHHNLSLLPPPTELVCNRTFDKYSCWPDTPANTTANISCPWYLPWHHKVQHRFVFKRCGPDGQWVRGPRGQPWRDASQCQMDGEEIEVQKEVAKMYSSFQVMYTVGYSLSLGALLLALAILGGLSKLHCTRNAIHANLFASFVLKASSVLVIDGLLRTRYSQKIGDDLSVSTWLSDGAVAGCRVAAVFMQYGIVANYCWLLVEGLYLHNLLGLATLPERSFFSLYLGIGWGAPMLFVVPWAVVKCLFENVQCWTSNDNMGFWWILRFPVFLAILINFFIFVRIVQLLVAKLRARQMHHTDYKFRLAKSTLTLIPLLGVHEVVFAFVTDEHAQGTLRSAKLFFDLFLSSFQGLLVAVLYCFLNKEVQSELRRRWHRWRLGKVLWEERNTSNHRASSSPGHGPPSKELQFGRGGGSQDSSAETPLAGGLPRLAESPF
Method: Peptide absorbance readings were obtained from UV Absorbance measurements at 280 nm on a Genesys 6 Spectrophotometer (Thermo Electron Corporation). Beer's Law was used to calculate solution concentrations based on the number of tryptophan and tyrosine residues in each analog. At the end of the incubation, 100 μL LucLite luminescence substrate reagent was added to each well, the plate sealed and shaken, and placed into a Wallac Trilux luminescence counter for cAMP detection.
HEK293 cells were co-transfected with the GcgR or GLP-1R cDNAs and a luciferase reporter gene-linked to a cAMP response element (CRE). […] The plate was incubated for 10 min in the dark and light output was quantified on a MicroBeta1450 liquid scintillation counter (Perkin-Elmer, Wellesley, Mass.).

With `CCCCCCCCCCCCCCCC(=O)N[C@@H](CCC(=O)NCCCC[C@H](NC(=O)[C@H](CC(=O)O)NC(=O)[C@H](CO)NC(=O)[C@@H](NC(=O)[C@H](Cc1ccccc1)NC(=O)[C@@H](NC(=O)CNC(=O)[C@H](CCC(N)=O)NC(=O)C(C)(C)NC(=O)[C@@H](N)Cc1c[nH]cn1)[C@@H](C)O)[C@@H](C)O)C(=O)N[C@@H](CO)C(=O)N[C@@H](CCCCN)C(=O)N[C@@H](Cc1ccc(O)cc1)C(=O)N[C@@H](CC(C)C)C(=O)N[C@@H](CC(=O)O)C(=O)N[C@@H](CCC(=O)O)C(=O)N[C@@H](CCC(N)=O)C(=O)N[C@@H](C)C(=O)N[C@@H](C)C(=O)N[C@@H](CCCCN)C(=O)N[C@@H](CCC(=O)O)C(=O)N[C@@H](Cc1ccccc1)C(=O)N[C@H](C(=O)N[C@@H](C)C(=O)N[C@@H](Cc1c[nH]c2ccccc12)C(=O)N[C@@H](CC(C)C)C(=O)N[C@@H](CCSC)C(=O)N[C@@H](CC(N)=O)C(=O)N[C@H](C(N)=O)[C@@H](C)O)[C@@H](C)CC)C(=O)O` [compound 645], the concentration giving a half-maximal response (EC50) under setting [1] came out at 0.025 nM. In the case of `CSCC[C@H](NC(=O)[C@H](CC(C)C)NC(=O)[C@H](Cc1c[nH]c2ccccc12)NC(=O)[C@H](CC(N)=O)NC(=O)[C@@H](NC(=O)[C@H](Cc1ccccc1)NC(=O)[C@H](CCC(=O)O)NC(=O)[C@@H]1CCCCNC(=O)CC[C@H](NC(=O)[C@H](CC(=O)O)NC(=O)[C@H](CC(C)C)NC(=O)[C@H](Cc2ccc(O)cc2)NC(=O)[C@H](CCCCN)NC(=O)[C@H](CO)NC(=O)[C@H](Cc2ccc(O)cc2)NC(=O)[C@H](CC(=O)O)NC(=O)[C@H](CO)NC(=O)[C@@H](NC(=O)[C@H](Cc2ccccc2)NC(=O)[C@@H](NC(=O)CNC(=O)[C@H](CCC(N)=O)NC(=O)[C@H](CO)NC(=O)[C@@H](N)Cc2ccc(O)cc2)[C@@H](C)O)[C@@H](C)O)C(=O)N[C@@H](CCC(N)=O)C(=O)N[C@@H](C)C(=O)N[C@@H](C)C(=O)N1)C(C)C)C(=O)N[C@@H](CC(N)=O)C(=O)NCC(=O)NCC(=O)N1CCC[C@H]1C(=O)N[C@@H](CO)C(=O)N[C@@H](CO)C(=O)NCC(=O)N[C@@H](C)C(=O)N1CCC[C@H]1C(=O)N1CCC[C@H]1C(=O)N1CCC[C@H]1C(=O)N[C@@H](CO)C(N)=O` [SEQ ID NO: 555] (H-YSQGTFTSDYSKYLDEQAAKEFVNWLMNGGPSSGAPPPS-NH2; lactam 16-20; N-terminus assumed), where the note is “EC50, Glucagon receptor, Table 18”, the EC50 stood at 0.044 nM. In the case of `CCCCCCCCCCCCCCCCCC(=O)N[C@@H](Cc1c[nH]c2ccccc12)C(=O)NCCCC[C@H](NC(=O)[C@H](CC(=O)O)NC(=O)[C@H](CO)NC(=O)[C@@H](NC(=O)[C@H](Cc1ccccc1)NC(=O)[C@@H](NC(=O)CNC(=O)[C@H](CCC(N)=O)NC(=O)[C@H](CO)NC(=O)[C@@H](N)Cc1c[nH]cn1)[C@@H](C)O)[C@@H](C)O)C(=O)N[C@@H](CO)C(=O)N[C@@H](CCCCN)C(=O)N[C@@H](Cc1ccc(O)cc1)C(=O)N[C@@H](CC(C)C)C(=O)N[C@@H](CC(=O)O)C(=O)N[C@@H](CCC(=O)O)C(=O)N[C@@H](CCCNC(=N)N)C(=O)N[C@@H](CCCNC(=N)N)C(=O)N[C@@H](C)C(=O)N[C@@H](CCCCN)C(=O)N[C@@H](CC(=O)O)C(=O)N[C@@H](Cc1ccccc1)C(=O)N[C@H](C(=O)N[C@@H](CCC(N)=O)C(=O)N[C@@H](Cc1c[nH]c2ccccc12)C(=O)N[C@@H](CC(C)C)C(=O)N[C@@H](CCSC)C(=O)N[C@@H](CC(N)=O)C(=O)N[C@H](C(N)=O)[C@@H](C)O)C(C)C` [E16 K20-glucagon-NH2 with K^10—W—C18], the EC50 was determined as 0.05 nM under setting [2] and 0.044 nM (EC50 at Glucagon Receptor, Table 17).

Under “EC50 at the Glucagon receptor, Table 21”, `CCCCCCCCCCCCCCCCCC(=O)NCCCC[C@H](NC(=O)[C@H](CC(=O)O)NC(=O)[C@H](CO)NC(=O)[C@@H](NC(=O)[C@H](Cc1ccccc1)NC(=O)[C@@H](NC(=O)CNC(=O)[C@H](CCC(N)=O)NC(=O)C(C)(C)NC(=O)[C@@H](N)Cc1c[nH]cn1)[C@@H](C)O)[C@@H](C)O)C(=O)N[C@@H](CO)C(=O)N[C@@H](CCCCN)C(=O)N[C@@H](Cc1ccc(O)cc1)C(=O)N[C@@H](CC(C)C)C(=O)N[C@@H](CC(=O)O)C(=O)NC(C)(C)C(=O)N[C@@H](CCCNC(=N)N)C(=O)N[C@@H](CCCNC(=N)N)C(=O)N[C@@H](C)C(=O)N[C@@H](CCC(N)=O)C(=O)N[C@@H](CC(=O)O)C(=O)N[C@@H](Cc1ccccc1)C(=O)N[C@H](C(=O)N[C@@H](CCC(N)=O)C(=O)N[C@@H](Cc1c[nH]c2ccccc12)C(=O)N[C@@H](CC(C)C)C(=O)N[C@@H](CCSC)C(=O)N[C@@H](CC(N)=O)C(=O)N[C@H](C(N)=O)[C@@H](C)O)C(C)C` [AIB2, AIB16, K10(C18) Gluc Amide] registered a 50% effective concentration (EC50) of 0.016 nM. `CCCCCCCCCCCCCCCC(=O)N[C@@H](Cc1c[nH]c2ccccc12)C(=O)NCCCC[C@H](NC(=O)[C@H](CC(=O)O)NC(=O)[C@H](CO)NC(=O)[C@@H](NC(=O)[C@H](Cc1ccccc1)NC(=O)[C@@H](NC(=O)CNC(=O)[C@H](CCC(N)=O)NC(=O)[C@H](CO)NC(=O)[C@@H](N)Cc1c[nH]cn1)[C@@H](C)O)[C@@H](C)O)C(=O)N[C@@H](CO)C(=O)N[C@@H](CCCCN)C(=O)N[C@@H](Cc1ccc(O)cc1)C(=O)N[C@@H](CC(C)C)C(=O)N[C@@H](CC(=O)O)C(=O)N[C@@H](CCC(=O)O)C(=O)N[C@@H](CCCNC(=N)N)C(=O)N[C@@H](CCCNC(=N)N)C(=O)N[C@@H](C)C(=O)N[C@@H](CCCCN)C(=O)N[C@@H](CC(=O)O)C(=O)N[C@@H](Cc1ccccc1)C(=O)N[C@H](C(=O)N[C@@H](CCC(N)=O)C(=O)N[C@@H](Cc1c[nH]c2ccccc12)C(=O)N[C@@H](CC(C)C)C(=O)N[C@@H](CCSC)C(=O)N[C@@H](CC(N)=O)C(=O)N[C@H](C(N)=O)[C@@H](C)O)C(C)C` [E16 K20-glucagon-NH2 with K^10—W—C16] returned an EC50 under setting [2] of 0.14 nM.

Take `CCCCCCCCCCCCCCCC(=O)N[C@@H](Cc1c[nH]c2ccccc12)C(=O)NCCCC[C@H](NC(=O)[C@H](CC(=O)O)NC(=O)[C@H](CO)NC(=O)[C@@H](NC(=O)[C@H](Cc1ccccc1)NC(=O)[C@@H](NC(=O)CNC(=O)[C@H](CCC(N)=O)NC(=O)C(C)(C)NC(=O)[C@@H](N)Cc1c[nH]cn1)[C@@H](C)O)[C@@H](C)O)C(=O)N[C@@H](CO)C(=O)N[C@@H](CCCCN)C(=O)N[C@@H](Cc1ccc(O)cc1)C(=O)N[C@@H](CC(C)C)C(=O)N[C@@H](CC(=O)O)C(=O)NC(C)(C)C(=O)N[C@@H](CCCNC(=N)N)C(=O)N[C@@H](CCCNC(=N)N)C(=O)N[C@@H](C)C(=O)N[C@@H](CCC(N)=O)C(=O)N[C@@H](CC(=O)O)C(=O)N[C@@H](Cc1ccccc1)C(=O)N[C@H](C(=O)N[C@@H](CS)C(=O)N[C@@H](Cc1c[nH]c2ccccc12)C(=O)N[C@@H](CC(C)C)C(=O)N[C@@H](CCSC)C(=O)N[C@@H](CC(N)=O)C(=O)N[C@H](C(N)=O)[C@@H](C)O)C(C)C`: the EC50 (Glucagon Receptor EC50, Table 20) stood at 0.25 nM. Regarding `CCCCCCCCCCCCCCCC(=O)NCCCC[C@H](NC(=O)[C@H](CC(=O)O)NC(=O)[C@H](CO)NC(=O)[C@@H](NC(=O)[C@H](Cc1ccccc1)NC(=O)[C@@H](NC(=O)CNC(=O)[C@H](CCC(N)=O)NC(=O)C(C)(C)NC(=O)[C@@H](N)Cc1c[nH]cn1)[C@@H](C)O)[C@@H](C)O)C(=O)N[C@@H](CO)C(=O)N[C@@H](CCCCN)C(=O)N[C@@H](Cc1ccc(O)cc1)C(=O)N[C@@H](CC(C)C)C(=O)N[C@@H](CC(=O)O)C(=O)NC(C)(C)C(=O)N[C@@H](CCCNC(=N)N)C(=O)N[C@@H](CCCNC(=N)N)C(=O)N[C@@H](C)C(=O)N[C@@H](CCC(N)=O)C(=O)N[C@@H](CC(=O)O)C(=O)N[C@@H](Cc1ccccc1)C(=O)N[C@H](C(=O)N[C@@H](CCC(N)=O)C(=O)N[C@@H](Cc1c[nH]c2ccccc12)C(=O)N[C@@H](CC(C)C)C(=O)N[C@@H](CCSC)C(=O)N[C@@H](CC(N)=O)C(=O)N[C@H](C(=O)N[C@@H](CCCCN)C(N)=O)[C@@H](C)O)C(C)C`, the 50% effective concentration (EC50) runs as follows: (EC50 at Glucagon Receptor (20% human plasma), Table 28, 20% human plasma) 0.313 nM; (EC50 at Glucagon Receptor, Table 28) 0.761 nM. In the case of `CSCC[C@H](NC(=O)[C@H](CC(C)C)NC(=O)[C@H](Cc1c[nH]c2ccccc12)NC(=O)[C@H](CCC(N)=O)NC(=O)[C@@H](NC(=O)[C@H](Cc1ccccc1)NC(=O)[C@H](CC(=O)O)NC(=O)[C@H](CCC(N)=O)NC(=O)[C@H](C)NC(=O)[C@H](CCCNC(=N)N)NC(=O)[C@H](CCCNC(=N)N)NC(=O)C(C)(C)NC(=O)[C@H](CC(=O)O)NC(=O)[C@H](CC(C)C)NC(=O)[C@H](Cc1ccc(O)cc1)NC(=O)[C@H](CCCCN)NC(=O)[C@H](CO)NC(=O)[C@H](Cc1ccc(O)cc1)NC(=O)[C@H](CC(=O)O)NC(=O)[C@H](CO)NC(=O)[C@@H](NC(=O)[C@H](Cc1ccccc1)NC(=O)[C@@H](NC(=O)CNC(=O)[C@H](CCC(N)=O)NC(=O)C(C)(C)NC(=O)[C@@H](N)Cc1c[nH]cn1)[C@@H](C)O)[C@@H](C)O)C(C)C)C(=O)N[C@@H](CC(N)=O)C(=O)N[C@H](C(N)=O)[C@@H](C)O` [Peptide 26] (H-H[Aib]QGTFTSDYSKYLD[Aib]RRAQDFVQWLMNT-NH2; N-terminus assumed), the concentration for a half-maximal effect (EC50) (read-out: EC50 at Glucagon Receptor, Table 22) turned out to be 0.653 ± 0.285 nM. As to `CCCCCCCCCCCCCCCC(=O)N[C@@H](CCC(=O)N[C@@H](CCC(=O)NCCCC[C@H](NC(=O)[C@H](CC(=O)O)NC(=O)[C@H](CO)NC(=O)[C@@H](NC(=O)[C@H](Cc1ccccc1)NC(=O)[C@@H](NC(=O)CNC(=O)[C@H](CCC(N)=O)NC(=O)C(C)(C)NC(=O)[C@@H](N)Cc1c[nH]cn1)[C@@H](C)O)[C@@H](C)O)C(=O)N[C@@H](CO)C(=O)N[C@@H](CCCCN)C(=O)N[C@@H](Cc1ccc(O)cc1)C(=O)N[C@@H](CC(C)C)C(=O)N[C@@H](CC(=O)O)C(=O)NC(C)(C)C(=O)N[C@@H](CCCNC(=N)N)C(=O)N[C@@H](C)C(=O)N[C@@H](C)C(=O)N[C@@H](CCC(N)=O)C(=O)N[C@@H](CC(=O)O)C(=O)N[C@@H](Cc1ccccc1)C(=O)N[C@H](C(=O)N[C@@H](CCC(N)=O)C(=O)N[C@@H](Cc1c[nH]c2ccccc12)C(=O)N[C@@H](CC(C)C)C(=O)N[C@@H](CCSC)C(=O)N[C@@H](CC(=O)O)C(=O)N[C@H](C(N)=O)[C@@H](C)O)C(C)C)C(=O)O)C(=O)O` [compound 655] (H-H[Aib]QGTFTSDK([γGlu-γGlu-Palmitoyl])SKYLD[Aib]RAAQDFVQWLMDT-NH2; N-terminus assumed), a half-maximal effect under setting [1] (EC50) was put at 0.003 nM.

The term EC50 denotes the concentration that produces a half-maximal response.
